These results are taken from patent US7196110B2, “N-substituted tricyclic 3-aminopyrazoles as inhibitors for the treatment of cell proliferative disorders” (Janssen Phamaceutica N.V., priority 2002, dated 2007).

The target of the experiment is T1, PDGF-receptor beta enzyme comprising the tyrosine kinase domain (Homo sapiens, UniProt P09619).
T1 construct: from amino acid 545 to 1106 of GenBank Access NO: AAA36427
In words: Inhibition of PDGF-receptor kinase activity (cell-free, PLC1 peptide, 33P Flashplate). It is filed as biochemical. The conditions noted are these: for inhibition at 10 µM: read-out: Percent Inhibition @ 10 uM. In short, it runs like this: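 Recombinant kinase domain (aa 545–1106) phosphorylated a biotinylated PLC1 peptide with 5 μM ATP plus 33P-γ-ATP, in Tris pH 8, MgCl2, Na3VO4 and 1 mM DTT, for 60 min at 30 °C. Retained 33P was counted after washing. IC50 is the concentration halving activity versus no-inhibitor reactions.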

Where [1] appears, read: PDGF-R kinase activity, compound at 10 uM.
[2] abbreviates: PDGF-R kinase activity, read-out: IC50.

Where two headings read alike, the source gives them in different places.

T1 sequence (P09619 545-1106): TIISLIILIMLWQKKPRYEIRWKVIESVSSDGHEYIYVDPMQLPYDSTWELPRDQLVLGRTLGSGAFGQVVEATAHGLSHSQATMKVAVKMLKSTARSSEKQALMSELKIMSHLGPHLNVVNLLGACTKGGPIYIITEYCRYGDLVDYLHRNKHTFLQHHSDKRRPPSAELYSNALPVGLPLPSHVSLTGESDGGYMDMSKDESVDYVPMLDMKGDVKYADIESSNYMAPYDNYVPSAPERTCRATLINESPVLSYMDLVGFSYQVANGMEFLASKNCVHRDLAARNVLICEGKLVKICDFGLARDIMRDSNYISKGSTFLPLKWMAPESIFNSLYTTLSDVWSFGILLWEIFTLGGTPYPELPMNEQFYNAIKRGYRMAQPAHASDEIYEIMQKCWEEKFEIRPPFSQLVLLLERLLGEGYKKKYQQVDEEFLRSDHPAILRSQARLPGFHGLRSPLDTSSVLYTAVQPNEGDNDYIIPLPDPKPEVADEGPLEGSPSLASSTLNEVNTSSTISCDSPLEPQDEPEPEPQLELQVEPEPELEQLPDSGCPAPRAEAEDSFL

What is called inhibition is the drop in the measured response relative to a control, in per cent. For orientation: IC50 means the concentration that inhibits the measured activity by half. Consider `CCOc1cc2c(cc1OCC)C(C)c1c-2n[nH]c1Nc1cccc(F)c1` (stereo not drawn) [Compound 344, (6,7-Diethoxy-4-methyl-2,4-dihydro-indeno[1,2-c]pyrazol-3-yl)-(3-fluoro-phenyl)-amine], for which the inhibition at 10 µM under setting [1] came out at 100%. For the same compound, under setting [2], the IC50 turned out to be 0.0647 µM. With `Cc1ccc2c(c1)-c1n[nH]c(Nc3ccc4[nH]ccc4c3)c1C2` [Compound 311, (1H-Indol-5-yl)-(7-methyl-2,4-dihydro-indeno[1,2-c]pyrazol-3-yl)-amine], the inhibition at 10 µM under setting [1] came to 68.5%. Also, the IC50 under setting [2] worked out at 0.0748 µM. For `Fc1cccc(Nc2[nH]nc3c2Cc2cc(Br)ccc2-3)c1` [Compound 151, (6-Bromo-2,4-dihydro-indeno[1,2-c]pyrazol-3-yl)-(3-fluoro-phenyl)-amine], in that order: 79% and 0.0918 µM. On to `CCOP(=O)(OCC)n1nc(Nc2cccc(F)c2)c2c1-c1cc(OC)c(OC)cc1C2` [Compound 446, [3-(3-Fluoro-phenylamino)-6,7-dimethoxy-4H-indeno[1,2-c]pyrazol-1-yl]-phosphonic acid diethyl ester], for which the inhibition at 10 µM is 93.5%. For the setting “IC50 (μM), PDGF-R kinase activity”, the IC50 was 0.266 µM. As to `COc1cccc2c1Cc1c-2n[nH]c1NCc1c(F)cccc1F` [Compound 423, (2,6-Difluoro-benzyl)-(5-methoxy-2,4-dihydro-indeno[1,2-c]pyrazol-3-yl)-amine], under setting [1], the inhibition at 10 µM was found to be 90%. The IC50 under setting [2] turned out to be 0.181 µM. The like results for `Oc1cc2c(cc1O)-c1n[nH]c(Nc3cccc(Br)c3)c1C2` [Compound 125, 3-(3-Bromo-phenylamino)-2,4-dihydro-indeno[1,2-c]pyrazole-6,7-diol] were, in that order, 71% and 3.44 µM. Consider `COc1cc2c(cc1OC)C(C)c1c(Nc3cccc(Br)c3)nn(C(=O)OCCOCCOCCO)c1-2` (stereo not drawn) [Compound 548, 3-(3-Bromo-phenylamino)-6,7-dimethoxy-4-methyl-4H-indeno[1,2-c]pyrazole-1-carboxylic acid 2-[2-(2-hydroxy-ethoxy)-ethoxy]-ethyl ester], for which, under setting [1], the inhibition at 10 µM was 82.5%. Moreover, the IC50 under setting [2] worked out at 0.214 µM. For `COc1cc2c(cc1OC)-c1n[nH]c(Nc3cccc(C(=O)NCCCN4CCCC4)c3)c1C2` [Compound 298, 3-(6,7-Dimethoxy-2,4-dihydro-indeno[1,2-c]pyrazol-3-ylamino)-N-(3-pyrrolidin-1-yl-propyl)-benzamide], in that order: 92% and 0.408 µM. As to `Clc1ccc(Nc2[nH]nc3c2Cc2ccccc2-3)cc1` [Compound 3, (4-Chloro-phenyl)-(2,4-dihydro-indeno[1,2-c]pyrazol-3-yl)-amine], the inhibition at 10 µM under setting [1] was found to be 90%. Besides, the IC50 under setting [2] was determined as 0.157 µM. Consider `FC(F)(F)c1ccc(Nc2[nH]nc3c2Cc2cc(Cl)ccc2-3)cc1` [Compound 193, (6-Chloro-2,4-dihydro-indeno[1,2-c]pyrazol-3-yl)-(4-trifluoromethyl-phenyl)-amine], for which the inhibition at 10 µM under setting [1] stood at 49%. Consider `CN(C)CCCOc1ccc2c(c1)Cc1c-2n[nH]c1Nc1ccc(OC(F)(F)F)cc1` [Compound 217, [6-(3-Dimethylamino-propoxy)-2,4-dihydro-indeno[1,2-c]pyrazol-3-yl]-(4-trifluoromethoxy-phenyl)-amine], for which, under setting [1], the inhibition at 10 µM is 51%. Also, under setting [2], the IC50 worked out at 3.48 µM.

`COc1cc2c(cc1OC)-c1n[nH]c(N3CCc4cc(Br)ccc43)c1C2` [Compound 567, 3-(5-Bromo-2,3-dihydro-indol-1-yl)-6,7-dimethoxy-2,4-dihydro-indeno[1,2-c]pyrazole]: under setting [1], the inhibition at 10 µM was found to be 39.5%. Regarding `COc1cc2c(cc1OC)-c1c(c(Nc3cccc(F)c3)nn1C(=O)COC(=O)C(C)C)C2` [Compound 474, Isobutyric acid 2-[3-(3-fluoro-phenylamino)-6,7-dimethoxy-4H-indeno[1,2-c]pyrazol-1-yl]-2-oxo-ethyl ester], under setting [1], the inhibition at 10 µM came out at 91.5%. In addition, under setting [2], the IC50 stood at 0.0634 µM. For the compound `COc1cc2c(cc1OC)-c1nn(C(=O)NCCN3CCOCC3)c(Nc3cccc(F)c3)c1C2` [Compound 522, 3-(3-Fluoro-phenylamino)-6,7-dimethoxy-4H-indeno[1,2-c]pyrazole-2-carboxylic acid (2-morpholin-4-yl-ethyl)-amide], the inhibition at 10 µM under setting [1] came out at 94%. Moreover, the IC50 under setting [2] is 0.791 µM. The like results for `COc1cc2c(cc1OC)-c1n[nH]c(NCc3cccc(Cl)c3Cl)c1C2` [Compound 326, (2,3-Dichloro-benzyl)-(6,7-dimethoxy-2,4-dihydro-indeno[1,2-c]pyrazol-3-yl)-amine] were, in that order, 82% and 0.267 µM. Take `CNC(=O)n1nc2c(c1Nc1cccc(F)c1)Cc1cc(OC)c(OC)cc1-2` [Compound 579, 3-(3-Fluoro-phenylamino)-6,7-dimethoxy-4H-indeno[1,2-c]pyrazole-2-carboxylic acid methylamide]: the inhibition at 10 µM under setting [1] is 28%. On to `CCC1c2cc(OC)c(OC)cc2-c2n[nH]c(Nc3cccc(Br)c3)c21` (single isomer, unassigned) [Compound 555, *R-(3-Bromo-phenyl)-(6,7-dimethoxy-4-ethyl-2,4-dihydro-indeno[1,2-c]pyrazol-3-yl)-amine], for which the inhibition at 10 µM under setting [1] stood at 97.5%. In addition, the half-maximal inhibitory concentration (IC50) under setting [2] worked out at 0.0209 µM. The like results for `COc1cc2c(cc1OCC(O)CO)Cc1c-2n[nH]c1NCc1c(Cl)cccc1Cl` (stereo not drawn) [Compound 450, 3-[3-(2,6-Dichloro-benzylamino)-7-methoxy-2,4-dihydro-indeno[1,2-c]pyrazol-6-yloxy]-propane-1,2-diol] were, in that order, 100% and 0.000938 µM. The like results for `COc1ccc(Nc2[nH]nc3c2Cc2cc(Cl)ccc2-3)cc1` [Compound 189, (6-Chloro-2,4-dihydro-indeno[1,2-c]pyrazol-3-yl)-(4-methoxy-phenyl)-amine] were, in that order, 92% and 0.199 µM.

Regarding `COCCOC(=O)n1nc(Nc2cccc(F)c2)c2c1-c1cc(OC)c(OC)cc1C2` [Compound 438, 3-(3-Fluoro-phenylamino)-6,7-dimethoxy-4H-indeno[1,2-c]pyrazole-1-carboxylic acid 2-methoxy-ethyl ester], under setting [1], the inhibition at 10 µM amounted to 77.5%. The IC50 under setting [2] is 0.992 µM.

As for `COc1ccc(CNc2[nH]nc3c2Cc2cc(OC)c(OC)cc2-3)cc1` [Compound 231, (6,7-Dimethoxy-2,4-dihydro-indeno[1,2-c]pyrazol-3-yl)-(4-methoxy-benzyl)-amine], the inhibition at 10 µM under setting [1] came to 37%. With `CCOc1cc2c(cc1OCC)-c1n[nH]c(NCc3ccccc3OC)c1C2` [Compound 296, (6,7-Diethoxy-2,4-dihydro-indeno[1,2-c]pyrazol-3-yl)-(2-methoxy-benzyl)-amine], the inhibition at 10 µM under setting [1] stood at 72.5%. Also, the IC50 under setting [2] was 1.82 µM. For `CN(C)CCCOc1cccc2c1Cc1c-2n[nH]c1Nc1ccc(F)cc1` [Compound 73, [5-(3-Dimethylamino-propoxy)-2,4-dihydro-indeno[1,2-c]pyrazol-3-yl]-(4-fluoro-phenyl)-amine], in that order: approximately 30% and more than 50 µM. Regarding `Fc1ccc2c(c1)Cc1c-2n[nH]c1NCc1cc(Cl)cc(Cl)c1` [Compound 304, (3,5-Dichloro-benzyl)-(6-fluoro-2,4-dihydro-indeno[1,2-c]pyrazol-3-yl)-amine], the inhibition at 10 µM under setting [1] was 38%. Further, the IC50 under setting [2] is 3.46 µM. For `Nc1ccc2c(c1)Cc1c-2n[nH]c1Nc1cccc(F)c1` [Compound 121, N3-(3-Fluoro-phenyl)-2,4-dihydro-indeno[1,2-c]pyrazole-3,6-diamine], under setting [1], the inhibition at 10 µM is 92%. Under setting [2], the IC50 was 0.143 µM. Turning to `Fc1ccc(F)c(Nc2[nH]nc3c2Cc2cc(Cl)ccc2-3)c1` [Compound 192, (6-Chloro-2,4-dihydro-indeno[1,2-c]pyrazol-3-yl)-(2,5-difluoro-phenyl)-amine], the inhibition at 10 µM under setting [1] was 67%. Moreover, the IC50 under setting [2] was found to be 0.103 µM. The like results for `COc1cc2c(cc1OC)-c1c(c(Nc3cccc(F)c3)nn1Cc1ccc(OC(C)=O)cc1)C2` [Compound 498, Acetic acid 4-[3-(3-fluoro-phenylamino)-6,7-dimethoxy-4H-indeno[1,2-c]pyrazol-1-ylmethyl]-phenyl ester] were, in that order, 51.5% and 8.33 µM. For `FC(F)(F)Oc1ccc(Nc2[nH]nc3c2Cc2cc(Cl)ccc2-3)cc1` [Compound 194, (6-Chloro-2,4-dihydro-indeno[1,2-c]pyrazol-3-yl)-(4-trifluoromethoxy-phenyl)-amine], in that order: 87% and 2.61 µM. The like results for `CCOc1cc2c(cc1OCC)-c1n[nH]c(Nc3ccc(F)c(Cl)c3)c1C2` [Compound 246, (3-Chloro-4-fluoro-phenyl)-(6,7-dioethoxy-2,4-dihydro-indeno[1,2-c]pyrazol-3-yl)-amine] were, in that order, 77% and 0.0121 µM. For `COc1ccc2c(c1)Cc1c-2n[nH]c1Nc1cccc(Br)c1` [Compound 83, (3-Bromo-phenyl)-(6-methoxy-2,4-dihydro-indeno[1,2-c]pyrazol-3-yl)-amine], the inhibition at 10 µM under setting [1] turned out to be 93%. The IC50 under setting [2] is 0.0719 µM.

As for `COc1cc2c(cc1O)-c1n[nH]c(Nc3cccc(F)c3)c1C2` [Compound 608, 3-(3-Fluoro-phenylamino)-6-methoxy-2,4-dihydro-indeno[1,2-c]pyrazol-7-ol], the inhibition at 10 µM under setting [1] is 106%. For the same compound, where the note is “read-out: IC50 (μM) on PDGF-R kinase activity”, the IC50 worked out at 0.026 µM. Take `COc1cc2c(cc1OC)-c1c(c(Nc3cccc(F)c3)nn1COC(=O)C(C)(C)C)C2` [Compound 409, 2,2-Dimethyl-propionic acid 3-(3-fluoro-phenylamino)-6,7-dimethoxy-4H-indeno[1,2-c]pyrazol-1-ylm ethyl ester]: the inhibition at 10 µM under setting [1] is 85.5%. The IC50 under setting [2] was 0.108 µM.
